The results in this text go back to patent publication US20090093476A1, “PYRROLO[1,2-A]QUINOXALINE DERIVATIVES AS ADENOSINE A3 RECEPTOR MODULATORS AND USES THEREOF” (FAUST PHARMACEUTICALS, priority 2005, published 2009).

Molecules are shown by their SMILES. Where a name gives a salt, the structure may show the parent alone.

The target in series [1] is T1, Human A3 receptor (Homo sapiens, UniProt P0DMS8).
T1 sequence (P0DMS8 1-318): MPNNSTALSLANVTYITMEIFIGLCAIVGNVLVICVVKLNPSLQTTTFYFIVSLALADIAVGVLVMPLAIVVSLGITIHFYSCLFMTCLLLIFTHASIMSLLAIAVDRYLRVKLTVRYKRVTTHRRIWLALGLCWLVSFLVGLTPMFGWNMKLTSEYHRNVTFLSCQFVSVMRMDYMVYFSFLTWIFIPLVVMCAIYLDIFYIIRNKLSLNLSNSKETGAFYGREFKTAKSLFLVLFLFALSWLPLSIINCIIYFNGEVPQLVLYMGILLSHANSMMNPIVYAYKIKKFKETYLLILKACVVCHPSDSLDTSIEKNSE
Nature of the series: Human A3 receptor binding assay, [125I]AB-MECA, HEK-293 cells. Further details: expressed in transfected cells. Conditions: [125I]AB-MECA 0.15 nM; for inhibition at 1 µM: read-out: hA3 inhibition at 1 μM (of specific binding); for IC50: HEK-293 cells, read-out: hA3 IC50. As to the method:
Compounds of the invention were evaluated in binding assays following procedure described by Salvatore et al. (Proc. Natl. Acad. Sci. (1993), 90:10365-10369). Human A3 receptors were used in HEK-293 cells with [^125I]AB-MECA (0.15 nM) as radioligand, IB-MECA (1 μM) for non-specific binding and 90 minutes of incubation at 22° C.

Series [2] concerns the target T2, Human A2A receptor (Homo sapiens, UniProt P29274).
T2 construct: expressed in transfected cells; host or cells: HEK-293 cells
Nature of the series: Human A2A receptor binding assay, [3H]CGS 21680, HEK-293 cells. To be noted: for inhibition at 10 µM / IC50: [3H]CGS 21680 6 nM; for inhibition at 10 µM: read-out: hA2A inhibition at 10 μM; for IC50: HEK-293 cells, read-out: hA2A IC50. As to the method:
Compounds of the invention were evaluated in binding assays following procedure described by Luthin et al. (Mol. Pharmacol. (1995), 47:307-313). Human A2A receptors were used in HEK-293 cells with [^3H]CGS 21680 (6 nM) as radioligand, NECA (10 μM) for non-specific binding and 90 minutes of incubation at 22° C.

The target of series [3] is T3, Human A1 receptor (Homo sapiens, UniProt P30542).
T3 construct: expressed in transfected cells; host or cells: CHO cells
T3 sequence (P30542 1-326): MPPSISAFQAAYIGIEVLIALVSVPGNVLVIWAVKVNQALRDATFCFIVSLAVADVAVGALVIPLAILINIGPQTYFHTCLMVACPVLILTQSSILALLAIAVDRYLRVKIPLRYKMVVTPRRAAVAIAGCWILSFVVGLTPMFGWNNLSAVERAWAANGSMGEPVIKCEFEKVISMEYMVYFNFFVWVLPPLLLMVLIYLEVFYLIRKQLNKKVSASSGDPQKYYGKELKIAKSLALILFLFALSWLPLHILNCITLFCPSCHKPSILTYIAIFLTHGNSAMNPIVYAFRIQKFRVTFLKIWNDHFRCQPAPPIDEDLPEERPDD
Nature of the series: Human A1 receptor binding assay, [3H]DPCPX, CHO cells. To be noted: for inhibition at 10 µM / IC50: [3H]DPCPX 1 nM; for inhibition at 10 µM: read-out: hA1 inhibition at 10 μM; for IC50: CHO cells, read-out: hA1 IC50. The procedure:
Compounds of the invention were evaluated in binding assays following procedure described by Townsend-Nicholson and Schofield (J. Biol. Chem. (1994), 269:2373-2376). Human A1 receptors were used in CHO cells with [^3H]DPCPX (1 nM) as radioligand, DPCPX (1 μM) for non-specific binding and 60 minutes of incubation at 22° C.

The target of series [4] is T4, Human A2B receptor (Homo sapiens, UniProt P29275).
T4 construct: expressed in transfected cells; host or cells: HEK-293 cells
T4 sequence (P29275 1-332): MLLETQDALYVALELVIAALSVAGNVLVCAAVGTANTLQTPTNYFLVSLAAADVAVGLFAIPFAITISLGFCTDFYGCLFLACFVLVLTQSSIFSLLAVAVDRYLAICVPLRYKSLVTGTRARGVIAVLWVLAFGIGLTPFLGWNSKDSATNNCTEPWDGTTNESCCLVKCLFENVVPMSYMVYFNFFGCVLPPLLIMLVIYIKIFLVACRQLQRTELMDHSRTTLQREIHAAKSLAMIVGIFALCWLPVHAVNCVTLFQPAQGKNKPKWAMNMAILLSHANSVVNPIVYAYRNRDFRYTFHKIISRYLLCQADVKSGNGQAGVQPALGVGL
The series is described as follows: Human A2B receptor binding assay, [3H]MRS1754, HEK-293 cells. To be noted: for IC50: [3H]MRS1754 0.5 nM, HEK-293 cells, read-out: hA2B IC50. The procedure:
Compounds of the invention were evaluated in binding assays following procedure described by Stehle et al. (Mol. Endocrinol. (1992), 6:384-393). Human A2B receptors were used in HEK-293 cells with [^3H]MRS1754 (0.5 nM) as radioligand, NECA (1 μM) for non-specific binding and 120 minutes of incubation at 22° C.

Series [5] deals with T1, Human A3 receptor. Nature of the series: Functional assay on human A3 receptor: forskolin-stimulated cAMP in CHO cells. The class given is cell-based. Also on record: expressed in transfected cells; host or cells: CHO cells. Conditions: for cAMP levels: forskolin 10 μM, example 1 10 μM, Cl-IB-MECA 0.1 μM, Basal 0, Forskolin 100. As to the method: CHO cells expressing the human A3 receptor were grown overnight as a monolayer in 24 well tissue culture plates (400 μl/well; 2×10^5 cells/well). cAMP generation was performed in Dulbecco's modified Eagle's medium (DMEM)/N-2-hydroxyethylpiperazin-N-2-ethansulfonic acid (HEPES) buffer (0.60 g HEPES/50 ml DMEM pH 7.4). Each well was washed twice with HEPES/DMEM buffer (250 μl), and the following added: rolipram (50 μM) and cilostamide (50 μM). This was incubated for 30 min at 37° C. followed by the introduction of the compound of example 1 (10 μM) and Cl-IB-MECA (0.1 μM) or DMEM/HEPES. After a further 10 min of incubation, forskolin was added (10 μM). After a subsequent 15 min, incubation was stopped by aspirating the assay medium and by adding 200 μl of ice-cold 0.1M HCl. The amount of cAMP was determined by competition with [3H]cAMP for protein kinase A (PKA). Briefly, the sample, approximately 1.8 nM [3H]cAMP, and 100 μl of PKA solution were incubated on ice for at least 2.5 h. The incubations were stopped by rapid dilution with 2 ml of icecold Tris HCl buffer (pH 7.4), and bound radioactive material was then recovered by filtration through Whatman GF/C filters. Filters were additionally rinsed with 2×2 ml of Tris HCl buffer, and then the radioactivity was counted in Packard Emulsifier Safe scintillation fluid (3.5 mL). All data reflect three independent experiments.
On the technique in general: cAMP levels reflect the balance of adenylyl cyclase and phosphodiesterase activity.

T2 sequence (P29274 whole entry): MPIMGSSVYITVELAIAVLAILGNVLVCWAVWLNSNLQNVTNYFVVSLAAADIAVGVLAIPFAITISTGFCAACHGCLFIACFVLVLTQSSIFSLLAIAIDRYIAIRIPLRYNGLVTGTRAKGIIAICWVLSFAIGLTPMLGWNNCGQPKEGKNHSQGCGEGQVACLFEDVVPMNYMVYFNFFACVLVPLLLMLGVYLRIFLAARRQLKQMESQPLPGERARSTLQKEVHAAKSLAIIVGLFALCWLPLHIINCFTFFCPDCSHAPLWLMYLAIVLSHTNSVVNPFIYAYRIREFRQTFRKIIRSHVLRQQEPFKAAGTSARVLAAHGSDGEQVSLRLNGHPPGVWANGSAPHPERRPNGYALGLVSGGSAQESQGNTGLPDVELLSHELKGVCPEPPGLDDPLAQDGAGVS

Regarding `CN(C)c1ccc(-c2cc3c(=O)[nH]c4ccccc4n3c2)cc1` [Example 10, 2-(4-Dimethylamino-phenyl)-5H-pyrrolo[1,2-a]quinoxalin-4-one, trifluoroacetic acid salt], the inhibition at 1 µM in series [1] was 32%.
As for `O=c1[nH]c2ccc(NCCCN3CCOCC3)cc2n2cc(-c3ccccc3)cc12` [Example 15, 8-(3-Morpholin-4-yl-propylamino)-2-phenyl-5H-pyrrolo[1,2-a]quinoxalin-4-one, trifluoro-acetic acid salt], the values for the inhibition at 10 µM in series [2] and in series [3] were 69% and 53%, respectively. The half-inhibitory concentration (IC50) is 0.0031 µM in series [1] and over 10 µM in series [4].
`Cc1ccc2[nH]c(=O)c3cc(-c4ccccc4)cn3c2c1` [Example 12, 8-Methyl-2-phenyl-5H-pyrrolo[1,2-a]quinoxalin-4-one] gave a melting point of 314 to 315 °C.
`O=c1[nH]c2ccc(Cl)cc2n2cc(-c3ccccc3)cc12` [Example 13, 8-Chloro-2-phenyl-5H-pyrrolo[1,2-a]quinoxalin-4-one] showed a melting point of 346 °C.
`O=c1[nH]c2ccc(N3CCOCC3)cc2n2cc(-c3ccccc3)cc12` [Example 11, 8-Morpholin-4-yl-2-phenyl-5H-pyrrolo[1,2-a]quinoxalin-4-one, trifluoroacetic acid salt]: the half-maximal inhibitory concentration (IC50) in series [2] and in series [4] was over 10 µM throughout. The inhibition at 1 µM in series [1] stood at 90%. The inhibition at 10 µM in series [3] stood at 53%.
In turn, `COc1ccc(-c2cc3c(=O)[nH]c4ccccc4n3c2)cc1` [Example 2, 2-(4-Methoxy-phenyl)-5H-pyrrolo[1,2-a]quinoxalin-4-one] had a melting point of 327 to 332 °C. The inhibition at 1 µM in series [1] is 82%.
`c1ccc(CCNc2nc3ccccc3n3cc(-c4ccccc4)cc23)cc1` [Example 7, Phenethyl-(2-phenyl-pyrrolo[1,2-a]quinoxalin-4-yl)-amine] displayed a melting point of 126 °C.
On to `O=c1[nH]c2ccccc2n2cc(-c3ccccc3)cc12` [Example 1, 2-Phenyl-5H-pyrrolo[1,2-a]quinoxalin-4-one], for which the melting point was in the range of 301 to 303 °C. For the same compound, the IC50 in series [2] is over 10 µM. Further, the “affinity on A2A (in words)” value in series [2] (up to 10 μM) was “no detectable affinity”. Moreover, the “mode of action at A3 receptor (prevents cAMP-decrease evoked by Cl-IB-MECA)” value in series [5] (example 1 10 μM vs Cl-IB-MECA 0.1 μM) is reported as “antagonist”. Moreover, the cAMP levels in series [5] (n = 1) was 150.133. In series [5] (n = 2), the cAMP levels was determined as 130.150. This compound gave a cAMP levels in series [5] (n = 3) of 104.510. Besides, the IC50 in series [1] stood at 0.0093 µM. In addition, the 50% inhibitory concentration (IC50) in series [3] was over 10 µM. Besides, in series [3] (up to 10 μM), the “affinity on A1 (in words)” value is on record as “no detectable affinity”. In addition, the IC50 in series [4] was over 1 µM. Besides, in series [4] (up to 1 μM), the “affinity on A2B (in words)” value is “no detectable affinity”.
`CCNc1nc2ccccc2n2cc(-c3ccccc3)cc12.Cl` had a melting point of 299 to 301 °C.
`O=C(O)C(F)(F)F.O=c1[nH]c2ccc(OCCN3CCOCC3)cc2n2cc(-c3ccccc3)cc12` [Example 17, 8-(2-Morpholin-4-yl-ethoxy)-2-phenyl-5H-pyrrolo[1,2-a]quinoxalin-4-one, trifluoroacetic acid salt] gave a melting point of 190 to 200 °C. The inhibition at 10 µM in series [2] is 57%. For the same compound, the IC50 in series [1] stood at 0.0035 µM. In series [3], the inhibition at 10 µM stood at 54%. The 50% inhibitory concentration (IC50) in series [4] was over 10 µM.
Turning to `CN(C)c1nc2ccccc2n2cc(-c3ccccc3)cc12` [Example 6, Dimethyl-(2-phenyl-pyrrolo[1,2-a]quinoxalin-4-yl)-amine], the melting point lay within 109 to 111 °C.
Take `CN1CCN(c2ccc3[nH]c(=O)c4cc(-c5ccccc5)cn4c3c2)CC1` [Example 14, 8-(4-Methyl-piperazin-1-yl)-2-phenyl-5H-pyrrolo[1,2-a]quinoxalin-4-one]: the IC50 in series [2] is over 10 µM; in series [1], 0.011 µM; in series [3], 8.4 µM; in series [4] it was over 10 µM.
Consider `CSc1nc2ccccc2n2cc(-c3ccccc3)cc12` [Example 9, 4-Methylsulfanyl-2-phenyl-pyrrolo[1,2-a]quinoxaline], for which the melting point amounted to 132 °C.
The same measure, in the same setting: the figure for `c1ccc(Nc2nc3ccccc3n3cc(-c4ccccc4)cc23)cc1` [Example 3, Phenyl-(2-phenyl-pyrrolo[1,2-a]quinoxalin-4-yl)-amine] is 172 °C.

The term inhibition denotes the change of the read-out against control, counted positive when it falls. Usually IC50 stands for the concentration needed to halve the response being measured. Usually melting point stands for the temperature of the solid-liquid transition.
